Molecules are shown by their SMILES. Where two headings read alike, the source gives them in different places.

28 compounds from US10689381B2 (priority 2017, dated 2020) can be followed below.

In assay [1] the test system is L1210. Put plainly: cells. The assay is classed as cell-based, mouse. As for the experimental part:
(§1) A population of cells (>1×10^6 cells/mL as determined with a hemocytometer) was diluted with Dulbecco's Modified Eagle Medium (DMEM, Gibco) containing 10% fetal bovine serum (FBS, Gibco) to give a final concentration of 30,000 cells/mL. To each well of a 96-well plate (Corning® Costar®) was added 100 μL of the cell media solution with a multichannel pipet.
(§2) The test compounds were then added to the plate as follows: test compounds were diluted in DMSO to a concentration of 1 mM. 10-Fold serial dilutions in DMSO were next performed on a separate 96-well plate. Fresh culture media (100 μL) was added to each well of cells resulting in 200 μL of medium per well followed by 2 μL of each test agent. Compounds were tested in duplicate (n=2-8 times) at six concentrations between 0-1000 nM or 0-10000 nM. Following the addition of compound, cultures were incubated for an additional 72 hours.
(§3) The plates were incubated at 37° C. for 5 minutes (L1210) or 15 min (HCT116 and HCT116/VM46).

Assay [2] deals with HCT116. Briefly: cells. The assay is classed as cell-based, human. The settings on record: for IC50: read-out: IC50 HCT116; for potency relative to vinblastine (more potent): vinblastine-sensitive cell lines. How it is done: as §1, §2, §3

By IC50 is commonly meant the midpoint of a concentration-inhibition curve. Turning to `CCC1(NC(=O)C2CCc3ccccc3C2)CC2CN(CCc3c([nH]c4ccccc34)C(C(=O)OC)(c3cc4c(cc3OC)N(C)C3C(O)(C(=O)OC)C(OC(C)=O)C5(CC)C=CCN6CCC43C65)C2)C1` (mixture of isomers) [Compound 122], the IC50 turned out to be 420 nM in assay [1] (Table 4) and 580 nM in assay [2] (Table 4).
Turning to `CCC(=O)NC1(CC)CC2CN(CCc3c([nH]c4ccccc34)C(C(=O)OC)(c3cc4c(cc3OC)N(C)C3C(O)(C(=O)OC)C(OC(C)=O)C5(CC)C=CCN6CCC43C65)C2)C1` (stereo not shown) [Compound 12], the IC50 in assay [1] (Table 1) and in assay [2] (Table 1) was 60 nM each time.
As for `CC[C@]1(NC(=O)C(C)C)C[C@H]2CN(CCc3c([nH]c4ccccc34)[C@@](C(=O)OC)(c3cc4c(cc3OC)N(C)[C@H]3[C@@](O)(C(=O)OC)[C@H](OC(C)=O)[C@]5(CC)C=CCN6CC[C@]43[C@@H]65)C2)C1` [Compound 13], the half-inhibitory concentration (IC50) in assay [1] (Table 1) turned out to be 70 nM; in assay [2] (Table 1), 90 nM.
For `CC[C@]1(NC(=O)C(C)(C)C)C[C@H]2CN(CCc3c([nH]c4ccccc34)[C@@](C(=O)OC)(c3cc4c(cc3OC)N(C)[C@H]3[C@@](O)(C(=O)OC)[C@H](OC(C)=O)[C@]5(CC)C=CCN6CC[C@]43[C@@H]65)C2)C1` [Compound 14], in that order: 2800 nM and 3600 nM.
For `CCCCCC(=O)N[C@@]1(CC)C[C@H]2CN(CCc3c([nH]c4ccccc34)[C@@](C(=O)OC)(c3cc4c(cc3OC)N(C)[C@H]3[C@@](O)(C(=O)OC)[C@H](OC(C)=O)[C@]5(CC)C=CCN6CC[C@]43[C@@H]65)C2)C1` [Compound 15], in that order: 55 nM and 40 nM.
For `CCC1(NC(=O)C2CC2)CC2CN(CCc3c([nH]c4ccccc34)C(C(=O)OC)(c3cc4c(cc3OC)N(C)C3C(O)(C(=O)OC)C(OC(C)=O)C5(CC)C=CCN6CCC43C65)C2)C1` (stereo not shown) [Compound 17] the same measures were 5.5 nM and 6.1 nM.
In the case of `CC[C@]1(NC(=O)C2CCCC2)C[C@H]2CN(CCc3c([nH]c4ccccc34)[C@@](C(=O)OC)(c3cc4c(cc3OC)N(C)[C@H]3[C@@](O)(C(=O)OC)[C@H](OC(C)=O)[C@]5(CC)C=CCN6CC[C@]43[C@@H]65)C2)C1` [Compound 19], the IC50 in assay [1] (Table 1) came out at 30 nM; in assay [2] (Table 1), 25 nM.
`CC[C@]1(NC(=O)C2CCCCC2)C[C@H]2CN(CCc3c([nH]c4ccccc34)[C@@](C(=O)OC)(c3cc4c(cc3OC)N(C)[C@H]3[C@@](O)(C(=O)OC)[C@H](OC(C)=O)[C@]5(CC)C=CCN6CC[C@]43[C@@H]65)C2)C1` [Compound 20]: the IC50 in assay [1] (Table 1) worked out at 55 nM; in assay [2] (Table 1), 70 nM.
For `CCC1(NC(=O)Cc2ccccc2)CC2CN(CCc3c([nH]c4ccccc34)C(C(=O)OC)(c3cc4c(cc3OC)N(C)C3C(O)(C(=O)OC)C(OC(C)=O)C5(CC)C=CCN6CCC43C65)C2)C1` (stereo not shown) [Compound 21], in that order: 55 nM and 55 nM.
For `CC[C@]1(NC(=O)C(c2ccccc2)c2ccccc2)C[C@H]2CN(CCc3c([nH]c4ccccc34)[C@@](C(=O)OC)(c3cc4c(cc3OC)N(C)[C@H]3[C@@](O)(C(=O)OC)[C@H](OC(C)=O)[C@]5(CC)C=CCN6CC[C@]43[C@@H]65)C2)C1` [Compound 22] the same measures were 760 nM and 3800 nM.
With `C=CC(=O)N[C@@]1(CC)C[C@H]2CN(CCc3c([nH]c4ccccc34)[C@@](C(=O)OC)(c3cc4c(cc3OC)N(C)[C@H]3[C@@](O)(C(=O)OC)[C@H](OC(C)=O)[C@]5(CC)C=CCN6CC[C@]43[C@@H]65)C2)C1` [Compound 23], the IC50 in assay [1] (Table 1) came out at 7 nM; in assay [1] (Table 3) it was 7 nM; in assay [2] (Table 1), 6 nM; in assay [2] (Table 3), 6 nM.
Turning to `CCC1(NC(=O)c2ccc(C)cc2)CC2CN(CCc3c([nH]c4ccccc34)C(C(=O)OC)(c3cc4c(cc3OC)N(C)C3C(O)(C(=O)OC)C(OC(C)=O)C5(CC)C=CCN6CCC43C65)C2)C1` (stereo not shown) [Compound 25], the IC50 in assay [1] (Table 2) was 0.5 nM; in assay [2] (Table 2), 0.45 nM. Moreover, the “potency relative to vinblastine (more potent)” value (shortened to “potency relative to vinblastine”) in assay [2] was 10 fold.
For the compound `CC[C@]1(NC(=O)c2cccc(C)c2)C[C@H]2CN(CCc3c([nH]c4ccccc34)[C@@](C(=O)OC)(c3cc4c(cc3OC)N(C)[C@H]3[C@@](O)(C(=O)OC)[C@H](OC(C)=O)[C@]5(CC)C=CCN6CC[C@]43[C@@H]65)C2)C1` [Compound 26], the IC50 in assay [1] (Table 2) stood at 0.5 nM; in assay [2] (Table 2), 0.7 nM. For the same compound, the “potency relative to vinblastine” value in assay [2] came to 10 fold.
On to `CC[C@]1(NC(=O)c2ccccc2C)C[C@H]2CN(CCc3c([nH]c4ccccc34)[C@@](C(=O)OC)(c3cc4c(cc3OC)N(C)[C@H]3[C@@](O)(C(=O)OC)[C@H](OC(C)=O)[C@]5(CC)C=CCN6CC[C@]43[C@@H]65)C2)C1` [Compound 27], for which the IC50 in assay [1] (Table 2) worked out at 55 nM; in assay [2] (Table 2), 50 nM.
For `CC[C@]1(NC(=O)c2cc(C)cc(C)c2)C[C@H]2CN(CCc3c([nH]c4ccccc34)[C@@](C(=O)OC)(c3cc4c(cc3OC)N(C)[C@H]3[C@@](O)(C(=O)OC)[C@H](OC(C)=O)[C@]5(CC)C=CCN6CC[C@]43[C@@H]65)C2)C1` [Compound 29], in that order: 5.4 nM and 6 nM.
For the compound `CCc1ccc(C(=O)NC2(CC)CC3CN(CCc4c([nH]c5ccccc45)C(C(=O)OC)(c4cc5c(cc4OC)N(C)C4C(O)(C(=O)OC)C(OC(C)=O)C6(CC)C=CCN7CCC54C76)C3)C2)cc1` (stereo not shown) [Compound 30], the IC50 in assay [1] (Table 2) was 0.65 nM; in assay [2] (Table 2), 0.7 nM. Also, the “potency relative to vinblastine” value in assay [2] was 10 fold.
In the case of `CCc1cc(CC)cc(C(=O)N[C@@]2(CC)C[C@H]3CN(CCc4c([nH]c5ccccc45)[C@@](C(=O)OC)(c4cc5c(cc4OC)N(C)[C@H]4[C@@](O)(C(=O)OC)[C@H](OC(C)=O)[C@]6(CC)C=CCN7CC[C@]54[C@@H]76)C3)C2)c1` [Compound 31], the IC50 was determined as 4.2 nM in assay [1] (Table 2) and 6.4 nM in assay [2] (Table 2).
As for `CC[C@]1(NC(=O)c2ccc(C(C)C)cc2)C[C@H]2CN(CCc3c([nH]c4ccccc34)[C@@](C(=O)OC)(c3cc4c(cc3OC)N(C)[C@H]3[C@@](O)(C(=O)OC)[C@H](OC(C)=O)[C@]5(CC)C=CCN6CC[C@]43[C@@H]65)C2)C1` [Compound 32], the IC50 worked out at 5.4 nM in assay [1] (Table 2) and 6.4 nM in assay [2] (Table 2).
For `CCC1(NC(=O)c2cccc(C(C)C)c2)CC2CN(CCc3c([nH]c4ccccc34)C(C(=O)OC)(c3cc4c(cc3OC)N(C)C3C(O)(C(=O)OC)C(OC(C)=O)C5(CC)C=CCN6CCC43C65)C2)C1` (stereo not shown) [Compound 33], the IC50 in assay [1] (Table 2) was 7.5 nM; in assay [2] (Table 2), 8.7 nM.
As for `CCCc1ccc(C(=O)NC2(CC)CC3CN(CCc4c([nH]c5ccccc45)C(C(=O)OC)(c4cc5c(cc4OC)N(C)C4C(O)(C(=O)OC)C(OC(C)=O)C6(CC)C=CCN7CCC54C76)C3)C2)cc1` (stereo not shown) [Compound 34], the IC50 in assay [1] (Table 2) came to 4.3 nM; in assay [2] (Table 2), 4.8 nM.
For `CCCCc1ccc(C(=O)N[C@@]2(CC)C[C@H]3CN(CCc4c([nH]c5ccccc45)[C@@](C(=O)OC)(c4cc5c(cc4OC)N(C)[C@H]4[C@@](O)(C(=O)OC)[C@H](OC(C)=O)[C@]6(CC)C=CCN7CC[C@]54[C@@H]76)C3)C2)cc1` [Compound 35], in that order: 30 nM and 20 nM.
For `CC[C@]1(NC(=O)c2ccc(CC(C)C)cc2)C[C@H]2CN(CCc3c([nH]c4ccccc34)[C@@](C(=O)OC)(c3cc4c(cc3OC)N(C)[C@H]3[C@@](O)(C(=O)OC)[C@H](OC(C)=O)[C@]5(CC)C=CCN6CC[C@]43[C@@H]65)C2)C1` [Compound 36], in that order: 25 nM and 10 nM.
For `CCC(C)c1ccc(C(=O)N[C@@]2(CC)C[C@H]3CN(CCc4c([nH]c5ccccc45)[C@@](C(=O)OC)(c4cc5c(cc4OC)N(C)[C@H]4[C@@](O)(C(=O)OC)[C@H](OC(C)=O)[C@]6(CC)C=CCN7CC[C@]54[C@@H]76)C3)C2)cc1` (stereo partly shown) [Compound 37] the same measures were 25 nM and 15 nM.
`CC[C@]1(NC(=O)c2ccc(C(C)(C)C)cc2)C[C@H]2CN(CCc3c([nH]c4ccccc34)[C@@](C(=O)OC)(c3cc4c(cc3OC)N(C)[C@H]3[C@@](O)(C(=O)OC)[C@H](OC(C)=O)[C@]5(CC)C=CCN6CC[C@]43[C@@H]65)C2)C1` [Compound 38]: the figures for the IC50 in assay [1] (Table 2) and in assay [2] (Table 2) were 0.6 nM and 1.9 nM, respectively.
For `CCC1(NC(=O)c2ccc(C(F)(F)F)cc2)CC2CN(CCc3c([nH]c4ccccc34)C(C(=O)OC)(c3cc4c(cc3OC)N(C)C3C(O)(C(=O)OC)C(OC(C)=O)C5(CC)C=CCN6CCC43C65)C2)C1` (stereo not shown) [Compound 39] the same measures were 4.3 nM and 3.3 nM.
Take `CC[C@]1(NC(=O)c2cccc(C(F)(F)F)c2)C[C@H]2CN(CCc3c([nH]c4ccccc34)[C@@](C(=O)OC)(c3cc4c(cc3OC)N(C)[C@H]3[C@@](O)(C(=O)OC)[C@H](OC(C)=O)[C@]5(CC)C=CCN6CC[C@]43[C@@H]65)C2)C1` [Compound 40]: the IC50 amounted to 6.2 nM in assay [1] (Table 2) and 6.4 nM in assay [2] (Table 2).
For `CCC1(NC(=O)c2ccccc2C(F)(F)F)CC2CN(CCc3c([nH]c4ccccc34)C(C(=O)OC)(c3cc4c(cc3OC)N(C)C3C(O)(C(=O)OC)C(OC(C)=O)C5(CC)C=CCN6CCC43C65)C2)C1` (stereo not shown) [Compound 41], in that order: 45 nM and 60 nM.
As to `CCC1(NC(=O)c2ccc(-c3ccccc3)cc2)CC2CN(CCc3c([nH]c4ccccc34)C(C(=O)OC)(c3cc4c(cc3OC)N(C)C3C(O)(C(=O)OC)C(OC(C)=O)C5(CC)C=CCN6CCC43C65)C2)C1` (stereo not shown) [Compound 42], the IC50 in assay [1] (Table 2) was determined as 5.5 nM; in assay [2] (Table 2), 5.4 nM.
